From patent US20090172831A1, “Methods for the production of plants resistant to HPPD herbicides” (Syngenta Limited, priority 2000, published 2009)
Where two headings read alike, the source gives them in different places. Blank lines part the entries; values can stand above or below the molecule they belong to.

Columns and labels:
Arabidopsis HPPD [1] = target: T1, Arabidopsis HPPD (Arabidopsis thaliana, UniProt P93836); assay: Dissociation of enzyme/inhibitor complexes by exchange with 14C-labelled inhibitor (koff; Kd = koff/kon); format: binding; details: for koff: − glycerol
T1 construct: made in house; host or cells: E. coli BL21 (DE3) codon+ RP
T1 sequence (P93836 1-445): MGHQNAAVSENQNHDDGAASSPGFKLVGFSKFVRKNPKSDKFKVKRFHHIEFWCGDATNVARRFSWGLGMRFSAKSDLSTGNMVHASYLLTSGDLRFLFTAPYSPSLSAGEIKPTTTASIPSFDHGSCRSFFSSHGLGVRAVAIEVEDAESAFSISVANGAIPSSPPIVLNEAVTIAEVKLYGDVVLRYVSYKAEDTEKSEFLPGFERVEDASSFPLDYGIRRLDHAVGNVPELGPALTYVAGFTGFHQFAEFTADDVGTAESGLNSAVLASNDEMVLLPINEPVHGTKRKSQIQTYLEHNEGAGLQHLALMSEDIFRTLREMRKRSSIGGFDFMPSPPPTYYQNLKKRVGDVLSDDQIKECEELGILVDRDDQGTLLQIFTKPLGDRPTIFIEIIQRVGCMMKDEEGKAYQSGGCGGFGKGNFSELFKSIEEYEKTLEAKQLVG
Procedure: It will be appreciated that many suitable methods known in the art for determining such low koff values are suitable for working the current invention. These include measuring rates of exchange of radio or otherwise labelled inhibitors either with or away from the enzyme inhibitor complex. For example enzyme inhibitor complexes can readily be prepared by incubating HPPD preparations with labelled or unlabelled inhibitor and then, after suitable periods, optionally rapidly separating the thus formed enzyme inhibitor complex from excess inhibitor by any suitable method such as ultrafiltration, binding to filters or exchange down a gel filtration column. Exchange reactions with the, thus prepared enzyme inhibitor complex is then initiated by addition of, as appropriate, excess labelled or unlabelled inhibitor. […] Many methods such as radiometric, fluorimetric, NMR, fluorescence depolarisation, EPR, Mossbauer, UV/VIS spectrophotometry etc. or phonon resonance can, in principle, be used to monitor the enzyme/ligand exchange reactions and, particularly in this case where the enzyme contains an iron atom at the ligand binding site. Optionally, the monitoring method may be continuous (as, for example, with scintillation proximity/bead-based methods) or, discontinuous, based upon collection of data at various timepoints wherein samples are removed and the bound and unbound label components rapidly separated and quantitated.
(§1) Values of koff can suitably be calculated by computer fitting based upon is numerical integration of the exchange data along with information on the active-site concentration of HPPD and upon kon values obtained as described below. […] In any event, koff values are always here calculated from the rate of the major slow exchange reaction.
^14C mesotrione is of specific activity 1.12 GBq/mmol. […] Following this initial binding reaction, exchange reactions are initiated by addition of cold mesotrione to a final concentration of 60 μM and 200 μl aliquots removed at various times to rapid chromatography down a NAP5 gel filtration column equilibrated in 50 mM BTP at pH 7 containing 0.1 M KCl, separation into fractions containing protein-bound or free radiolabel and liquid scintillation counting.
Nevertheless, here, for practical purposes, koff values are always here calculated from the rate of the major slow exchange reaction.
Not all test inhibitors are readily available in a radiolabelled form.

Wheat HPPD = Wheat HPPD (Triticum aestivum, UniProt A0A3B6NLC6); assay: as above; format: binding; details: for koff: − glycerol
Text: (§2) Herbicidal inhibitors of HPPD are found here to have generally low values of koff (in the range less than 0.0003 s^−1, often less than 0.000001 s^−1). It will be appreciated that many suitable methods known in the art for determining such low koff values are suitable for working the current invention. These include measuring rates of exchange of radio or otherwise labelled inhibitors either with or away from the enzyme inhibitor complex. For example enzyme inhibitor complexes can readily be prepared by incubating HPPD preparations with labelled or unlabelled inhibitor and then, after suitable periods, optionally rapidly separating the thus formed enzyme inhibitor complex from excess inhibitor by any suitable method such as ultrafiltration, binding to filters or exchange down a gel filtration column. Exchange reactions with the, thus prepared enzyme inhibitor complex is then initiated by addition of, as appropriate, excess labelled or unlabelled inhibitor. HPPD preparations suitable for use in the methods of the current invention are relatively unpurified, buffer-exchanged, supernatant fractions of spun crude lysates of E. coli strains engineered to express the HPPD enzyme of interest at a level of, typically, about 0.25-10% of the total soluble protein. Many methods such as radiometric, fluorimetric, NMR, fluorescence depolarisation, EPR, Mossbauer, UV/VIS spectrophotometry etc. or phonon resonance can, in principle, be used to monitor the enzyme/ligand exchange reactions and, particularly in this case where the enzyme contains an iron atom at the ligand binding site. Optionally, the monitoring method may be continuous (as, for example, with scintillation proximity/bead-based methods) or, discontinuous, based upon collection of data at various timepoints wherein samples are removed and the bound and unbound label components rapidly separated and quantitated.
as §1, with “reaction. It will be appreciated that within the scope of the current invention many methods of making the desired kinetic comparisons are possible without explicit or rigorous determination of off rates but, based upon the same underlying principle, will achieve the same selection result.” for “reaction.”
The dissociation rates (off rates) of inhibitors selected from Formula 1 and/or 2 and/or 3 and/or 4 from the complexes that they form with test and control HPPD enzymes are suitably measured in a number of ways. Thus, for example, the rates of dissociation of mesotrione, a compound selected from Formula 1 and of the diketonitrile of isoxaflutole, a compound selected from Formula 3 from their respective complexes with, test, wheat HPPD and with, control, Arabidopsis HPPD are compared. The method and results from a typical test are as follows.
^14C mesotrione is of specific activity 1.12 GBq/mmol. This is ˜95% pure radiochemically by TLC and based upon the proportion of material tight-binding to HPPD. Arabidopsis and, (test), wheat HPPD are each diluted to a concentration of ˜0.45 and 0.54 μM, respectively into 1.6 ml of 50 mM Bis-Tris propane buffer at pH 7.0 containing 25% glycerol, 25 mM sodium ascorbate and 3 mg/l of bovine catalase (Sigma C3155˜50,000 units/mg) containing […] ^14C mesotrione and left to react at 25 C for 2.5-3 h. Following this initial binding reaction, exchange reactions are initiated by addition of cold mesotrione to a final concentration of 60 μM and 200 μl aliquots removed at various times to rapid chromatography down a NAP5 gel filtration column equilibrated in 50 mM BTP at pH 7 containing 0.1 M KCl, separation into fractions containing protein-bound or free radiolabel and liquid scintillation counting. […]

P. fluorescens HPPD = P. fluorescens HPPD (Pseudomonas fluorescens, UniProt A0ACG8AE61); assay: as above; format: binding
Text: as §2
as §1, with “reaction. It will be appreciated that within the scope of the current invention many methods of making the desired kinetic comparisons are possible without explicit or rigorous determination of off rates but, based upon the same underlying principle, will achieve the same selection result. […]” for “reaction.”
Not all test inhibitors are readily available in a radiolabelled form. A more general method of measuring off rates is to first form the complex with unlabelled test inhibitor, to rapidly exchange the complex free of excess unlabelled inhibitor and to then start the exchange reaction by addition of an excess of a standard labelled inhibitor, the kinetic properties of which are already known. The reaction is then monitored and the relative proportions of bound and unbound label determined at various times. […] The latter is the method of choice when the rate of exchange is fast (t½<3 h).
In, variants of the above methods, off rates are measured either in the presence or absence of ˜25% v/v glycerol. In the presence of glycerol values obtained are generally ˜1.5-3× slower than in its absence although sometimes the change is outside this range or, even, in the other direction. Further examples of data obtained are depicted in the following Table 3.
Crude Extracts of recombinant E. coli strains expressing, in the one case, a control HPPD (from Arabidopsis) and, in the other, one or more test HPPD sequences are prepared as described in the preceding example. The titre of active sites and enzyme activity are also defined and measured as described in the preceding examples. […]

maize HPPD = assay: Inhibition of part purified HPPD after pre-incubation with inhibitor; format: biochemical
Procedure: (§3) Qualitative measurements of the differences in Kd values in respect of different HPPD inhibitors are obtained by pre-incubating enzyme with inhibitor and, then, subsequently, measuring the % inhibition. For example HPPD is isolated from maize seedlings, part purified and assayed by similar methods to those described by Schulz et al 1993 (FEBS LETS. 318, 162-166) and by Secor (1994) in Plant Physiol. 106, 1429-1433. Assays are run for 30 minutes and started with addition of radiolabelled hydroxyphenylpyruvate (final concentration ˜0.1-0.2 mM) following a 20-30 min period over which inhibitor is pre-incubated with the part-purified enzyme.
The following levels of inhibition (relative to controls) are observed with the following doses of herbicide versus maize HPPD

Arabidopsis HPPD [2] = target: T1, Arabidopsis HPPD; assay: Inhibition of HPPD (E. coli extract) after pre-incubation with inhibitor; format: biochemical; details: read-out: inhibition (relative to controls)
Procedure: as §3
Using the same assay method but using HPPD from Arabidopis (obtained from E. coli cells transformed to express the Arabidopsis HPPD and prepared as an E. coli extract similar to the methods described by Garcia et al in Plant Physiol (1999) 119, 1507-1516) the following levels of inhibition (relative to controls) are observed with the following doses of herbicide versus Arabidopsis HPPD.

[3] = Kd, without glycerol, Kd = koff/kon
[4] = without glycerol, Kd = koff/kon, read-out: Kd
[5] = value obtained + glycerol (in parentheses), read-out: Kd

Wheat HPPD, sequence (A0A3B6NLC6 entry or part of it): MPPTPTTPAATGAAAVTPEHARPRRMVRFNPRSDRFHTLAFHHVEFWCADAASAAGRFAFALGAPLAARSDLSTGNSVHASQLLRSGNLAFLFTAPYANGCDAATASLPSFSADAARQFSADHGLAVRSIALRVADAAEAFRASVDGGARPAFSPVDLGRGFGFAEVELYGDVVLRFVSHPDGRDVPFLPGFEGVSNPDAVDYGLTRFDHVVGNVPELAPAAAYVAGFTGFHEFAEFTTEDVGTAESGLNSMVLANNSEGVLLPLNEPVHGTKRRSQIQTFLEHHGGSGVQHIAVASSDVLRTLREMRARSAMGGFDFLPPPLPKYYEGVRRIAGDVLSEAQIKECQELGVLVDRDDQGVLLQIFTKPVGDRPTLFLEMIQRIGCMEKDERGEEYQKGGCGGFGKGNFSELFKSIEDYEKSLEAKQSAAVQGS
P. fluorescens HPPD, sequence (A0ACG8AE61 entry or part of it): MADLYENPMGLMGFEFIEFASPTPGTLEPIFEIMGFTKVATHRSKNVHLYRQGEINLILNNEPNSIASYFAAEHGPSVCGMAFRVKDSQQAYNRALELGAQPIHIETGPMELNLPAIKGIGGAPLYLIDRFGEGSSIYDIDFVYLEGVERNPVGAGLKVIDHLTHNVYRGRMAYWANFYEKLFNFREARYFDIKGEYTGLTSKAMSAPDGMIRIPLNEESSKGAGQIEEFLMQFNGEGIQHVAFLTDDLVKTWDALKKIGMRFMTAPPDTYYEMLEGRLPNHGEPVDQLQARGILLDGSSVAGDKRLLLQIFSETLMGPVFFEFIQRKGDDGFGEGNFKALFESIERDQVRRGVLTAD

strength of inhibition (Arabidopsis HPPD [1]; used for pre-incubation in control experiments): weak inhibitor
Structure (SMILES): CCC1CC(=O)C(C(=O)C2CC2)C(=O)C1(C)S(C)(=O)=O (stereo not shown) [Structure VIII, 2-[cyclopropylcarbonyl]-5-ethyl-4-methanesulfonyl-4-methylcyclohexane-1,3-dione]

Structure (SMILES): Cc1cc(C#N)ccc1C(=O)C1C(=O)C(C)(C)C(=O)C(C)(C)C1=O [Structure VI, 2-[2-methyl-4-cyanobenzoyl]-4,4,6,6-tetramethylcyclohexane-1,3,5-trione]
Kd (Arabidopsis HPPD [1]): 25 pM
Kd (Wheat HPPD; [3]): 450 pM
Kd (P. fluorescens HPPD; [4]): > 20000 pM

Structure (SMILES): Cc1nc(C(F)(F)F)ccc1C(=O)C1C(=O)C(C)(C)C(=O)C(C)(C)C1=O [Structure VII, 3-[[2-methyl-6-(trifluoromethyl)-3-pyridinyl]carbonyl]-4,4,6,6-tetramethylcyclohexane-1,3,5-trione]
Kd (Arabidopsis HPPD [1]): 32 pM
koff (Arabidopsis HPPD [1]): 1e-06 s⁻¹
Kd (Wheat HPPD; [3]): 175 pM
koff (Wheat HPPD): 8.3e-06 s⁻¹
koff (P. fluorescens HPPD; − glycerol): > 0.0003 s⁻¹

Structure (SMILES): CS(=O)(=O)c1ccc(C(=O)C2C(=O)CCCC2=O)c(Cl)c1 [sulcotrione, 2-(2-Chloro-4-methanesulphonylbenzoyl)-cyclohexane-1,3-dione]
fold less active against the maize enzyme than structure IV (maize HPPD): ~100 fold
inhibition (relative to controls) (maize HPPD; 10 nM): 8%
inhibition (relative to controls) (maize HPPD; 100 nM): 51%
inhibition (relative to controls) (maize HPPD; 1000 nM): 83%
inhibition at 0.001 µM (Arabidopsis HPPD [2]): 57%
inhibition at 0.01 µM (Arabidopsis HPPD [2]): 96%
inhibition at 0.1 µM (Arabidopsis HPPD [2]): 100%
inhibition at 1 µM (Arabidopsis HPPD [2]): 100%

koff (Arabidopsis HPPD [1]): 1.1e-05 s⁻¹
koff (Wheat HPPD; read-out: koff): > 0.0002 s⁻¹
Structure (SMILES): CCOCc1nc(C(F)(F)F)ccc1C(=O)C1C(=O)C2CCC(C2)C1=O (stereo not shown) [Structure III, 3-[[2-(ethoxymethyl)-6-(trifluoromethyl)-3-pyridinyl]carbonyl]-bicyclo[3.2.1]-octane-2,4-dione]

Structure (SMILES): CS(=O)(=O)c1cc(C(F)(F)F)ccc1C(=O)C(C#N)C(=O)C1CC1 (stereo not shown) [Structure IV, 1-[2-(methanesulfonyl)-4-(trifluoromethyl)phenyl]-3-cyclopropyl-2-cyano-propane-1,3-dione, reference compound]
Kd (Wheat HPPD; [5]): 596 pM
Kd (Wheat HPPD; [4]): 885 pM
Kd (P. fluorescens HPPD; in water at pH 7.0 and at 25 C, read-out: dissociation constant (Kd)): 12200 pM
Kd (P. fluorescens HPPD; [5]): 1100 pM
Kd (P. fluorescens HPPD; [4]): 12200 pM
inhibition at 0.001 µM (Arabidopsis HPPD [2]; 1 nM): 20%
inhibition at 0.01 µM (Arabidopsis HPPD [2]; 10 nM): 90%
inhibition at 0.1 µM (Arabidopsis HPPD [2]; 100 nM): 95%
inhibition at 1 µM (Arabidopsis HPPD [2]; 1000 nM): 95%
